These results are taken from patent US20200205318A1, “HEAT TRANSFER FLUIDS, METHODS AND SYSTEMS” (priority 2018, published 2020).

Data set [1] can be described thus: Acute inhalation toxicity (OECD Guideline No. 403). As to conditions: statement in words. The class given is in vivo. The source says:
LC50 is a measure of the acute toxicity of a compound. The acute inhalation toxicity of a compound can be assessed using the method described in the OECD Guideline for Testing of Chemicals No. 403 “Acute Inhalation Toxicity” (2009), Method B.2. (Inhalation) of Commission Regulation (EC) No. 440/2008.

Data set [2] can be described thus: Flammability / flash point (ASTM D3828, NFPA 30). It counts as physicochemical. The procedure: The flash pint of a thermal management fluid refers the lowest temperature at which vapors of the liquid will keep burning after the ignition source is removed as determined in accordance with ASTM D3828.
“Non-flammable” in the context of a thermal management composition or fluid means compounds or compositions which are determined to be non-flammable. The flash point of a thermal management composition or fluid refers the lowest temperature at which vapors of the composition will keep burning after the ignition source is removed as determined in accordance with ASTM D3828.

Data set [3] is described as follows: Dielectric constant (ASTM D2477-07). It counts as physicochemical. To be noted: at 22° C. The procedure:
(§1) Applicants have unexpectedly discovered that TFMCB not only meets the challenging performance requirements for high temperature heat transfer applications and for electronic cooling but also satisfies exacting environmental and safety requirements. […] In particular, applicants have determined that TFMCB has a measured dielectric constant of 20 at 22° C. as determined by ASTM D2477-07 and has a measured electrical conductivity of less than 10 nS/cm at 22° C. as determined by ASTM D 2624.

Data set [4] can be described thus: Electrical conductivity (ASTM D 2624). To be noted: at 22° C. The class given is physicochemical. As to the method:
as §1

Structures are written as SMILES.

Turning to `FC(F)(F)C1(F)CCC1(F)F` (centres unmarked) [TFMCB, 1-trifluoromethyl-1,2,2-trifluorocyclobutane], the toxicity result in data set [1] is recorded as “low levels of toxicity”. Further, the flammability entry in data set [2] was “non-flammable”. Moreover, the flash point entry in data set [2] (ASTM D3828) is given as “no flash point below 100° F”. Also, in data set [3], the dielectric constant amounted to 20. Further, the electrical conductivity entry in data set [4] was “less than 10 nS/cm”.
